{
  "source": "the supplement of paper PMC10307832",
  "assay_in_all_cases": "relative viability (nuclei count vs DMSO), 5 days (fraction); higher = more cells survive",
  "key": {"[1]": {"system": "NCI-H358", "how_it_was_run": "(§1)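 Lung cancer cell lines in 1536-well plates were dosed by pin tool the day after seeding, either with one drug alone or with a fixed anchor-drug dose plus five library-drug doses (not always all listed) in √10 steps. After 5 days, cells were fixed and their nuclei stained in one step (final 0.05% Triton X-100, 1% formaldehyde, 1 ug/ml Hoechst), then counted on 4× images. Relative viability is the nuclei count in treated wells divided by that in vehicle wells. Values are medians of duplicate plates.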"}, "[2]": {"system": "NCI-H650", "how_it_was_run": "as §1"}, "[3]": {"system": "NCI-H838", "how_it_was_run": "as §1"}, "[4]": {"system": "NCI-H1792", "how_it_was_run": "as §1"}, "[5]": {"system": "SK-MES-1", "how_it_was_run": "as §1"}, "[6]": {"system": "NCI-H596", "how_it_was_run": "as §1"}, "[7]": {"system": "HARA", "how_it_was_run": "as §1"}, "[8]": {"system": "201T", "how_it_was_run": "as §1"}, "[9]": {"system": "EKVX", "how_it_was_run": "as §1"}, "[10]": {"system": "COR-L23", "how_it_was_run": "as §1"}, "[11]": {"system": "HCC-827", "how_it_was_run": "as §1"}, "[12]": {"system": "BEN", "how_it_was_run": "as §1"}, "[13]": {"system": "NCI-H1437", "how_it_was_run": "as §1"}, "[14]": {"system": "A-427", "how_it_was_run": "as §1"}, "[15]": {"system": "HCC-15", "how_it_was_run": "as §1"}, "[16]": {"system": "HCC-44", "how_it_was_run": "as §1"}, "[17]": {"system": "NCI-H1975", "how_it_was_run": "as §1"}, "[18]": {"system": "NCI-H23", "how_it_was_run": "as §1"}, "[19]": {"system": "NCI-H1666", "how_it_was_run": "as §1"}, "[20]": {"system": "NCI-H441", "how_it_was_run": "as §1"}},
  "data": [
    {"smiles": "O=c1cc(-c2cccc3c2Sc2ccccc2S3)oc(N2CCOCC2)c1", "note": "+ C[C@]1(O)C[C@@H](c2nc(-c3ccc4ccc(-c5ccccc5)nc4c3)c3c(N)nccn32)C1 [Linsitinib] (partner 1 µM)", "values": [
      {"measurement": "relative viability", "setting": "[1]; first compound 0.08 µM", "result": 0.618},
      {"measurement": "relative viability", "setting": "[1]; first compound 0.253 µM", "result": 0.665},
      {"measurement": "relative viability", "setting": "[1]; first compound 0.8 µM", "result": 0.79},
      {"measurement": "relative viability", "setting": "[1]; first compound 2.53 µM", "result": 0.707},
      {"measurement": "relative viability", "setting": "[1]; first compound 8 µM", "result": 0.784},
      {"measurement": "relative viability", "setting": "[2]; first compound 0.08 µM", "result": 0.829},
      {"measurement": "relative viability", "setting": "[2]; first compound 0.253 µM", "result": 0.854},
      {"measurement": "relative viability", "setting": "[2]; first compound 0.8 µM", "result": 0.782},
      {"measurement": "relative viability", "setting": "[2]; first compound 2.53 µM", "result": 0.642},
      {"measurement": "relative viability", "setting": "[2]; first compound 8 µM", "result": 0.7},
      {"measurement": "relative viability", "setting": "[3]; first compound 0.08 µM", "result": 0.958},
      {"measurement": "relative viability", "setting": "[3]; first compound 0.253 µM", "result": 1.49},
      {"measurement": "relative viability", "setting": "[3]; first compound 0.8 µM", "result": 0.821},
      {"measurement": "relative viability", "setting": "[3]; first compound 2.53 µM", "result": 0.859},
      {"measurement": "relative viability", "setting": "[3]; first compound 8 µM", "result": 0.899},
      {"measurement": "relative viability", "setting": "[4]; first compound 0.253 µM", "result": 0.61},
      {"measurement": "relative viability", "setting": "[4]; first compound 0.8 µM", "result": 0.502},
      {"measurement": "relative viability", "setting": "[4]; first compound 2.53 µM", "result": 0.535},
      {"measurement": "relative viability", "setting": "[4]; first compound 8 µM", "result": 0.516},
      {"measurement": "relative viability", "setting": "[5]; first compound 0.08 µM", "result": 1.12},
      {"measurement": "relative viability", "setting": "[5]; first compound 0.253 µM", "result": 1.16},
      {"measurement": "relative viability", "setting": "[5]; first compound 0.8 µM", "result": 0.956},
      {"measurement": "relative viability", "setting": "[5]; first compound 2.53 µM", "result": 1.08},
      {"measurement": "relative viability", "setting": "[5]; first compound 8 µM", "result": 1.05},
      {"measurement": "relative viability", "setting": "[6]; first compound 0.08 µM", "result": 1.02},
      {"measurement": "relative viability", "setting": "[6]; first compound 0.253 µM", "result": 1.2},
      {"measurement": "relative viability", "setting": "[6]; first compound 0.8 µM", "result": 1.14},
      {"measurement": "relative viability", "setting": "[6]; first compound 2.53 µM", "result": 1.08},
      {"measurement": "relative viability", "setting": "[6]; first compound 8 µM", "result": 1.15},
      {"measurement": "relative viability", "setting": "[7]; first compound 0.08 µM", "result": 1.01},
      {"measurement": "relative viability", "setting": "[7]; first compound 0.253 µM", "result": 1.2},
      {"measurement": "relative viability", "setting": "[7]; first compound 0.8 µM", "result": 1.08},
      {"measurement": "relative viability", "setting": "[7]; first compound 2.53 µM", "result": 0.948},
      {"measurement": "relative viability", "setting": "[7]; first compound 8 µM", "result": 0.743},
      {"measurement": "relative viability", "setting": "[8]; first compound 0.08 µM", "result": 0.99},
      {"measurement": "relative viability", "setting": "[8]; first compound 0.253 µM", "result": 1.04},
      {"measurement": "relative viability", "setting": "[8]; first compound 0.8 µM", "result": 0.929},
      {"measurement": "relative viability", "setting": "[8]; first compound 2.53 µM", "result": 0.974},
      {"measurement": "relative viability", "setting": "[8]; first compound 8 µM", "result": 0.986},
      {"measurement": "relative viability", "setting": "[9]; first compound 0.08 µM", "result": 1.17},
      {"measurement": "relative viability", "setting": "[9]; first compound 0.253 µM", "result": 1.13},
      {"measurement": "relative viability", "setting": "[9]; first compound 0.8 µM", "result": 0.818},
      {"measurement": "relative viability", "setting": "[9]; first compound 2.53 µM", "result": 1.02},
      {"measurement": "relative viability", "setting": "[9]; first compound 8 µM", "result": 0.935},
      {"measurement": "relative viability", "setting": "[10]; first compound 0.08 µM", "result": 0.958},
      {"measurement": "relative viability", "setting": "[10]; first compound 0.253 µM", "result": 0.965},
      {"measurement": "relative viability", "setting": "[10]; first compound 0.8 µM", "result": 1.13},
      {"measurement": "relative viability", "setting": "[10]; first compound 2.53 µM", "result": 1.08},
      {"measurement": "relative viability", "setting": "[10]; first compound 8 µM", "result": 1.04},
      {"measurement": "relative viability", "setting": "[11]; first compound 0.08 µM", "result": 0.892},
      {"measurement": "relative viability", "setting": "[11]; first compound 0.253 µM", "result": 0.979},
      {"measurement": "relative viability", "setting": "[11]; first compound 0.8 µM", "result": 0.925},
      {"measurement": "relative viability", "setting": "[11]; first compound 2.53 µM", "result": 0.848},
      {"measurement": "relative viability", "setting": "[11]; first compound 8 µM", "result": 0.915},
      {"measurement": "relative viability", "setting": "[12]; first compound 0.08 µM", "result": 0.996},
      {"measurement": "relative viability", "setting": "[12]; first compound 0.253 µM", "result": 1.04},
      {"measurement": "relative viability", "setting": "[12]; first compound 0.8 µM", "result": 1.14},
      {"measurement": "relative viability", "setting": "[12]; first compound 2.53 µM", "result": 0.898},
      {"measurement": "relative viability", "setting": "[12]; first compound 8 µM", "result": 1.23},
      {"measurement": "relative viability", "setting": "[13]; first compound 0.08 µM", "result": 1.12},
      {"measurement": "relative viability", "setting": "[13]; first compound 0.253 µM", "result": 1.49},
      {"measurement": "relative viability", "setting": "[13]; first compound 0.8 µM", "result": 1.15},
      {"measurement": "relative viability", "setting": "[13]; first compound 2.53 µM", "result": 0.997},
      {"measurement": "relative viability", "setting": "[13]; first compound 8 µM", "result": 1.12},
      {"measurement": "relative viability", "setting": "[14]; first compound 0.08 µM", "result": 1.09},
      {"measurement": "relative viability", "setting": "[14]; first compound 0.253 µM", "result": 0.959},
      {"measurement": "relative viability", "setting": "[14]; first compound 0.8 µM", "result": 1.19},
      {"measurement": "relative viability", "setting": "[14]; first compound 2.53 µM", "result": 1.07},
      {"measurement": "relative viability", "setting": "[14]; first compound 8 µM", "result": 1.08},
      {"measurement": "relative viability", "setting": "[15]; first compound 0.08 µM", "result": 0.958},
      {"measurement": "relative viability", "setting": "[15]; first compound 0.253 µM", "result": 0.93},
      {"measurement": "relative viability", "setting": "[15]; first compound 0.8 µM", "result": 0.904},
      {"measurement": "relative viability", "setting": "[15]; first compound 2.53 µM", "result": 0.844},
      {"measurement": "relative viability", "setting": "[15]; first compound 8 µM", "result": 0.88},
      {"measurement": "relative viability", "setting": "[16]; first compound 0.08 µM", "result": 0.681},
      {"measurement": "relative viability", "setting": "[16]; first compound 0.253 µM", "result": 0.532},
      {"measurement": "relative viability", "setting": "[16]; first compound 0.8 µM", "result": 0.696},
      {"measurement": "relative viability", "setting": "[16]; first compound 2.53 µM", "result": 0.623},
      {"measurement": "relative viability", "setting": "[16]; first compound 8 µM", "result": 0.548},
      {"measurement": "relative viability", "setting": "[17]; first compound 0.08 µM", "result": 1.07},
      {"measurement": "relative viability", "setting": "[17]; first compound 0.253 µM", "result": 1.2},
      {"measurement": "relative viability", "setting": "[17]; first compound 0.8 µM", "result": 0.807},
      {"measurement": "relative viability", "setting": "[17]; first compound 2.53 µM", "result": 0.863},
      {"measurement": "relative viability", "setting": "[17]; first compound 8 µM", "result": 0.881},
      {"measurement": "relative viability", "setting": "[18]; first compound 0.08 µM", "result": 0.596},
      {"measurement": "relative viability", "setting": "[18]; first compound 0.253 µM", "result": 0.738},
      {"measurement": "relative viability", "setting": "[18]; first compound 0.8 µM", "result": 0.578},
      {"measurement": "relative viability", "setting": "[18]; first compound 2.53 µM", "result": 0.684},
      {"measurement": "relative viability", "setting": "[18]; first compound 8 µM", "result": 0.574},
      {"measurement": "relative viability", "setting": "[19]; first compound 0.08 µM", "result": 0.827},
      {"measurement": "relative viability", "setting": "[19]; first compound 0.253 µM", "result": 0.946},
      {"measurement": "relative viability", "setting": "[19]; first compound 0.8 µM", "result": 0.545},
      {"measurement": "relative viability", "setting": "[19]; first compound 2.53 µM", "result": 0.738},
      {"measurement": "relative viability", "setting": "[19]; first compound 8 µM", "result": 0.805},
      {"measurement": "relative viability", "setting": "[20]; first compound 0.08 µM", "result": 0.549},
      {"measurement": "relative viability", "setting": "[20]; first compound 0.253 µM", "result": 0.619},
      {"measurement": "relative viability", "setting": "[20]; first compound 0.8 µM", "result": 0.759},
      {"measurement": "relative viability", "setting": "[20]; first compound 2.53 µM", "result": 0.584},
      {"measurement": "relative viability", "setting": "[20]; first compound 8 µM", "result": 0.632}
    ]}
  ]
}
